According to ChEMBL document CHEMBL3351531, “Scaffold hopping of sampangine: discovery of potent antifungal lead compound against Aspergillus fumigatus and Cryptococcus neoformans” (Bioorg Med Chem Lett, 2014):
In brackets after ≈: the same amount, converted by molar mass.

Test system: Cryptococcus neoformans
Assay: Antifungal activity against Cryptococcus neoformans after 72 hrs by serial dilution method
Assay type: functional
Details: not given

Row | MIC80 | SMILES
1 | 64 µg/mL (≈ 190 µM) | CN1CCN(c2cnc3c4c(nccc24)-c2sccc2C3=O)CC1
2 | 8 µg/mL (≈ 36 µM) | O=C1c2ccoc2-c2nccc3ccnc1c23
3 | 16 µg/mL (≈ 72 µM) | O=C1c2occc2-c2nccc3ccnc1c23
4 | 4 µg/mL (≈ 12.7 µM) | O=C1c2ccsc2-c2nc(-c3ccccc3)cc3ccnc1c23
5 | > 64 µg/mL | COc1cnc2c3c(nccc13)-c1sccc1C2=O
6 | 2 µg/mL (≈ 7.93 µM) | CC1(C)CC2=C(O1)C(=O)c1nccc3ccnc2c13
7 | 32 µg/mL (≈ 101 µM) | O=C1c2ccsc2-c2nc(-c3cccnc3)cc3ccnc1c23
8 | 0.5 µg/mL (≈ 1.83 µM) | O=C1c2ccsc2-c2nccc3c(Cl)cnc1c23
9 | > 64 µg/mL | O=C1c2cc(Cl)sc2-c2nccc3c(Cl)cnc1c23

Test system: Candida albicans
Assay: Antifungal activity against Candida albicans after 24 hrs by serial dilution method
Assay type: functional
Details: not given

Row | MIC80 | SMILES
10 | > 64 µg/mL | CN1CCN(c2cnc3c4c(nccc24)-c2sccc2C3=O)CC1
11 | 32 µg/mL (≈ 144 µM) | O=C1c2ccoc2-c2nccc3ccnc1c23
12 | 32 µg/mL (≈ 144 µM) | O=C1c2occc2-c2nccc3ccnc1c23
13 | 32 µg/mL (≈ 102 µM) | O=C1c2ccsc2-c2nc(-c3ccccc3)cc3ccnc1c23
14 | > 64 µg/mL | COc1cnc2c3c(nccc13)-c1sccc1C2=O
15 | > 64 µg/mL | CC1(C)CC2=C(O1)C(=O)c1nccc3ccnc2c13
16 | 32 µg/mL (≈ 101 µM) | O=C1c2ccsc2-c2nc(-c3cccnc3)cc3ccnc1c23
17 | 32 µg/mL (≈ 117 µM) | O=C1c2ccsc2-c2nccc3c(Cl)cnc1c23
18 | 32 µg/mL (≈ 104 µM) | O=C1c2cc(Cl)sc2-c2nccc3c(Cl)cnc1c23

Test system: Nannizzia gypsea
Assay: Antifungal activity against Microsporum gypseum by serial dilution method
Assay type: functional
Details: not given

Row | MIC80 | SMILES
19 | > 64 µg/mL | CN1CCN(c2cnc3c4c(nccc24)-c2sccc2C3=O)CC1
20 | 16 µg/mL (≈ 72 µM) | O=C1c2ccoc2-c2nccc3ccnc1c23
21 | 16 µg/mL (≈ 72 µM) | O=C1c2occc2-c2nccc3ccnc1c23
22 | > 64 µg/mL | O=C1c2ccsc2-c2nc(-c3ccccc3)cc3ccnc1c23
23 | > 64 µg/mL | COc1cnc2c3c(nccc13)-c1sccc1C2=O
24 | > 64 µg/mL | CC1(C)CC2=C(O1)C(=O)c1nccc3ccnc2c13
25 | 32 µg/mL (≈ 101 µM) | O=C1c2ccsc2-c2nc(-c3cccnc3)cc3ccnc1c23
26 | 0.125 µg/mL (≈ 0.458 µM) | O=C1c2ccsc2-c2nccc3c(Cl)cnc1c23
27 | 8 µg/mL (≈ 26 µM) | O=C1c2cc(Cl)sc2-c2nccc3c(Cl)cnc1c23

Test system: Trichophyton rubrum
Assay: Antifungal activity against Trichophyton rubrum by serial dilution method
Assay type: functional
Details: not given

Row | MIC80 | SMILES
28 | > 64 µg/mL | CN1CCN(c2cnc3c4c(nccc24)-c2sccc2C3=O)CC1
29 | 8 µg/mL (≈ 36 µM) | O=C1c2ccoc2-c2nccc3ccnc1c23
30 | 8 µg/mL (≈ 36 µM) | O=C1c2occc2-c2nccc3ccnc1c23
31 | 16 µg/mL (≈ 50.9 µM) | O=C1c2ccsc2-c2nc(-c3ccccc3)cc3ccnc1c23
32 | > 64 µg/mL | COc1cnc2c3c(nccc13)-c1sccc1C2=O
33 | 8 µg/mL (≈ 31.7 µM) | CC1(C)CC2=C(O1)C(=O)c1nccc3ccnc2c13
34 | > 64 µg/mL | O=C1c2ccsc2-c2nc(-c3cccnc3)cc3ccnc1c23
35 | 2 µg/mL (≈ 7.33 µM) | O=C1c2ccsc2-c2nccc3c(Cl)cnc1c23
36 | > 64 µg/mL | O=C1c2cc(Cl)sc2-c2nccc3c(Cl)cnc1c23

Test system: not listed separately
Assay: Kinetic solubility of the compound in PBS buffer at pH 7.4
Assay type: physicochemical
Details: read-out: Kinetic_solubility

Row | solubility kinetic | SMILES
37 | 27 µg/mL (≈ 107 µM) | CC1(C)CC2=C(O1)C(=O)c1nccc3ccnc2c13

Test system: Aspergillus fumigatus
Assay: Antifungal activity against Aspergillus fumigatus after 7 days by serial dilution method
Assay type: functional
Details: 168 h

Row | MIC80 | SMILES
38 | > 64 µg/mL | CN1CCN(c2cnc3c4c(nccc24)-c2sccc2C3=O)CC1
39 | 32 µg/mL (≈ 144 µM) | O=C1c2ccoc2-c2nccc3ccnc1c23
40 | 32 µg/mL (≈ 144 µM) | O=C1c2occc2-c2nccc3ccnc1c23
41 | > 64 µg/mL | O=C1c2ccsc2-c2nc(-c3ccccc3)cc3ccnc1c23
42 | > 64 µg/mL | COc1cnc2c3c(nccc13)-c1sccc1C2=O
43 | 1 µg/mL (≈ 3.96 µM) | CC1(C)CC2=C(O1)C(=O)c1nccc3ccnc2c13
44 | > 64 µg/mL | O=C1c2ccsc2-c2nc(-c3cccnc3)cc3ccnc1c23
45 | 2 µg/mL (≈ 7.33 µM) | O=C1c2ccsc2-c2nccc3c(Cl)cnc1c23
46 | > 64 µg/mL | O=C1c2cc(Cl)sc2-c2nccc3c(Cl)cnc1c23

Test system: Nakaseomyces glabratus
Assay: Antifungal activity against Candida glabrata after 24 hrs by serial dilution method
Assay type: functional
Details: not given

Row | MIC80 | SMILES
47 | 64 µg/mL (≈ 190 µM) | CN1CCN(c2cnc3c4c(nccc24)-c2sccc2C3=O)CC1
48 | 64 µg/mL (≈ 288 µM) | O=C1c2ccoc2-c2nccc3ccnc1c23
49 | 32 µg/mL (≈ 144 µM) | O=C1c2occc2-c2nccc3ccnc1c23
50 | > 64 µg/mL | O=C1c2ccsc2-c2nc(-c3ccccc3)cc3ccnc1c23
51 | > 64 µg/mL | COc1cnc2c3c(nccc13)-c1sccc1C2=O
52 | 0.125 µg/mL (≈ 0.495 µM) | CC1(C)CC2=C(O1)C(=O)c1nccc3ccnc2c13
53 | > 64 µg/mL | O=C1c2ccsc2-c2nc(-c3cccnc3)cc3ccnc1c23
54 | 0.5 µg/mL (≈ 1.83 µM) | O=C1c2ccsc2-c2nccc3c(Cl)cnc1c23
55 | > 64 µg/mL | O=C1c2cc(Cl)sc2-c2nccc3c(Cl)cnc1c23

Test system: Candida parapsilosis
Assay: Antifungal activity against Candida parapsilosis after 24 hrs by serial dilution method
Assay type: functional
Details: Lodderomyces parapsilosis

Row | MIC80 | SMILES
56 | > 64 µg/mL | CN1CCN(c2cnc3c4c(nccc24)-c2sccc2C3=O)CC1
57 | > 64 µg/mL | O=C1c2ccoc2-c2nccc3ccnc1c23
58 | > 64 µg/mL | O=C1c2occc2-c2nccc3ccnc1c23
59 | > 64 µg/mL | O=C1c2ccsc2-c2nc(-c3ccccc3)cc3ccnc1c23
60 | > 64 µg/mL | COc1cnc2c3c(nccc13)-c1sccc1C2=O
61 | > 64 µg/mL | CC1(C)CC2=C(O1)C(=O)c1nccc3ccnc2c13
62 | > 64 µg/mL | O=C1c2ccsc2-c2nc(-c3cccnc3)cc3ccnc1c23
63 | > 64 µg/mL | O=C1c2ccsc2-c2nccc3c(Cl)cnc1c23
64 | > 64 µg/mL | O=C1c2cc(Cl)sc2-c2nccc3c(Cl)cnc1c23
